Assays:
[1] = Dynamic vapor sorption (DVS) at 25° C. and RH up to 90%; type: physicochemical
Method: FIG. 4 depicts a DVS of Compound A monocitrate monohydrate Form A salt at 25° C. and RH up to 90%.

[2] = Plasma pharmacokinetics of compound A after twice daily dosing; type: in vivo
[3] = Slurry and solvent evaporation polymorph experiments of Compound A citrate salt (Table 9); type: physicochemical
Method: Based on the approximate solubility data of Compound A citrate salt, 18 polymorph experiments were started at RT with stirring (Table 9). Wet cakes from the slurry experiments were analyzed after 5 days of stirring. Wet cake XRPD patterns were checked and materials showing no pattern change were heated from RT to 50° C.
Procedure • 1) Slurry at RT: ˜35 mg citrate salt was slurried in different solvents in 4 mL vials using a magnetic stirrer at RT. The solids in slurry were characterized by XRPD after 3-5 days. • 2) Slurry at 50° C.: Slurries with no change in wet cake XRPD pattern when compared to starting material were heated from RT to 50° C. Samples were analyzed after 2-3 days of stirring.
Wet cake samples were isolated and kept at 25° C. for 2 h for drying. After drying, samples were analyzed by XRPD.

[4] = Form C screening experiments; type: physicochemical; conditions: Exp. 16: 40 mg in water 0.1 mL, RT; CL → HSL
[5] = Form C water activity study in MeCN/water; type: physicochemical
Method: Water activity study in MeCN/water: A water activity investigation was conducted utilizing a MeCN/water system. […] Subsequently, Form A seeds were introduced into vials with water activities between 0.01 and 0.6. […] The solids were isolated and subjected to vacuum drying at room temperature overnight.

[6] = Form C slurry conditioning in EtOH/water (95/5); type: physicochemical
[7] = Polymorph screening of Compound A citrate salt, form conversion (XRPD, DSC/TGA, DVS); type: physicochemical; conditions: drying of wet cake (Form B); presence of water (Form C)
[8] = Form C characterization and relative stability of the forms; type: physicochemical
Description: Moreover, HNMR studies validated a 1:1 stoichiometry between the freebase and acid.

[9] = about 163 mg twice daily in combination with a CYP3A4 inhibitor (e.g., a strong CYP3A4 inhibitor)

Compound: CCN(C(=O)c1cc(F)ccc1Oc1cncnc1N1CC2(CCN(C[C@H]3CC[C@H](NS(=O)(=O)CC)CC3)CC2)C1)C(C)C.O.O=C(O)CC(O)(CC(=O)O)C(=O)O
- water absorbed (DVS) ([1]; 25° C., from 0% to 90% relative humidity): about 1.9%
- hygroscopicity ([1]; DVS at 25° C. and RH up to 90%): not hygroscopic
- area under plasma concentration versus time curve from time 0 to 12 hours (AUC(0-12h)) of compound A [2, 9]: about 22610 ng·h/mL
- maximum plasma concentration (Cmax) of compound A [2, 9]: about 3220 ng/mL
- area under plasma concentration versus time curve from time 0 to 12 hours (AUC(0-12h)) of compound A ([2]; about 276 mg twice daily): about 10150 ng·h/mL
- maximum plasma concentration (Cmax) of compound A ([2]; about 276 mg twice daily): about 2052 ng/mL
- Form ([3]; 1,4-dioxane/H2O (7:3), solvent evaporation): Form A (FIG. 19)
- Form ([3]; Propanol/H2O (7:3), solvent evaporation): Form A (FIG. 19)
- Form ([3]; THF/H2O (7:3), solvent evaporation): Amorphous (FIG. 19)
- Form ([3]; slurry, 1,4-dioxane/H2O (7:3)): Form A (FIG. 18)
- Form ([3]; slurry, 2-Me-THF, starting material a 1:1 mixture (footnote)): Form A (FIG. 18)
- Form ([3]; slurry, Acetone/H2O (7:3)): Form A (FIG. 18)
- Form ([3]; slurry, DCM): Form A (FIG. 17)
- Form ([3]; slurry, EtOAc): Form A (FIG. 17)
- Form ([3]; slurry, H2O): Form A (FIG. 18)
- Form ([3]; slurry, IPAc): Form A (FIG. 18)
- Form ([3]; slurry, MEK): Form A (FIG. 17)
- Form ([3]; slurry, MTBE): Form A (FIG. 18)
- Form ([3]; slurry, MeCN): Form C (FIG. 14)
- Form ([3]; slurry, MeOH or EtOH, after air dry): dry→Form A (FIG. 16)
- Form ([3]; slurry, MeOH or EtOH, wet cake): Form B (Wet cake)→ air
- Form ([3]; slurry, Propanol/H2O (7:3)): Form A (FIG. 18)
- Form ([3]; slurry, THF): Form A (FIG. 17)
- Form ([3]; slurry, Toluene): Form A (FIG. 17)

Compound: CCN(C(=O)c1cc(F)ccc1Oc1cncnc1N1CC2(CCN(CC3CCC(NS(=O)(=O)CC)CC3)CC2)C1)C(C)C.O=C(O)CC(O)(CC(=O)O)C(=O)O (stereo not shown) [Form C]
- Crystal Form [4]: Form A
- XRPD ([5]; Exp. 1: Form C 40 mg, MeCN/water aw 0.01, RT, no Form A seed): Form C
- XRPD ([5]; Exp. 1a: MeCN/water aw 0.01, RT, Form A seed 20 mg added): Form C
- XRPD ([5]; Exp. 2: Form C 40 mg, MeCN/water aw 0.22, RT, no Form A seed): Form C
- XRPD ([5]; Exp. 2a: MeCN/water aw 0.22, RT, Form A seed 20 mg added): Form C
- XRPD ([5]; Exp. 3: Form C 40 mg, MeCN/water aw 0.41, RT, no Form A seed): Form C
- XRPD ([5]; Exp. 3a: MeCN/water aw 0.41, RT, Form A seed 20 mg added): Form C
- XRPD ([5]; Exp. 4: Form C 40 mg, MeCN/water aw 0.59, RT, no Form A seed): Form C
- XRPD ([5]; Exp. 4a: MeCN/water aw 0.59, RT, Form A seed 20 mg added): Form C
- Form (XRPD) after addition of Form A seeds ([5]; MeCN/water, water activities 0.01 to 0.6, overnight stirring): match with the Form C
- Form stability (XRPD of wet cake) ([5]; MeCN/water, water activities 0.01 to 0.8, RT, overnight stirring): remained stable
- Form (XRPD) of isolated vacuum-dried solids ([5]; water activity levels of 0.01-0.6): consistent with Form C
- Form (XRPD) of isolated vacuum-dried solids ([5]; water activity of 0.8): combination of Form C and Form A
- Form conversion on slurry conditioning ([6]; EtOH/water (95/5), overnight stirring): converted to Form A
- XRPD ([6]; Exp. 1: Form C 40 mg, EtOH/water (95/5) 0.2, RT, no Form A seed, slurry overnight): Form A
- XRPD ([6]; Exp. 2: Form C, EtOH/water (95/5), RT, Form A seed 20 mg): Form A
- stability of polymorphic form / conversion [7]: unstable and converts to Form A in presence of water
- XRPD profile after heating ([8]; heating to 110° C.): aligned with that of Form C
- Solid recovered from water ([8]; overnight stirring in water at RT): Form A was recrystallized
- XRPD pattern after drying ([8]; post-vacuum drying at room temperature): remained unchanged
- Form conversion ([8]; water and EtOH/water (95/5 v/v)): transitions to Form A
- Form conversion ([3]; dried solid, upon exposure to humidity): converts to Form A upon exposure to humidity
